Test system: platelets
Method: Briefly, whole citrated blood is diluted 1:2 with sterile saline and placed in a warm chamber with a mini stir bar. An electronic probe, measuring electrical resistance, is inserted in the sample. The aggregometer is calibrated and the baseline is observed to detect any spontaneous aggregation. The test sample is added and allowed to run for at least 6 minutes. If the sample is an agonist the platelets will start to aggregate and stick to the electronic probe causing resistance across the electrodes to increase. This resistance, in ohms, is measured 6 minutes post addition of sample. The test samples are run at 25, 100, 200, 400 and 800 uM and compared to 100 uM L-ET-18-OCH3.
Collection of Blood Sample for in vitro Platelet Aggregation Testing: Venous blood is collected in 4.5 mL. Vacutainer tubes containing 0.129 M sodium citrate using a 21G needle or larger. Blood is immediately mixed by gentle inversion 15-20 times and kept at room temperature. Dilution ratio is 1 to 9 (3.8% citrate solution:blood). One (2.0 mL) Vacutainer tube containing EDTA is also collected for platelet counts. Complete blood counts (CBC) are measured on the CDC Technologies Hemavet 1500 to ensure that the test subject's platelets are within normal range. Any vials of hemolytic blood or blood containing any clots should be discarded. Platelet aggregation testing must be completed within 3 hours of blood collection. After this time the ability of platelets to aggregate decreases.
Cloudy solutions were warmed to ˜50° C. to dissolve and particles. Dilutions were prepared in PBS or saline at 40× concentration. (25 uL test sample are added to 1000 uL diluted blood (1:40)).

Question: What does the source list for `CCCCCCCCCCCCCCCCCCOCC(COP(=O)([O-])OCC[N+](C)(C)C)OC` [L-ET18OCH3, 1-O-octadecyl-2-O-methyl-glycerophosphocholine]?
Answer: Platelet aggregation response (in words): elicits a platelet aggregation response; Relative Platelet Aggregation (Ohms) 25 μM: 13 Ohms; Relative Platelet Aggregation (Ohms) 100 μM: 14 Ohms; Relative Platelet Aggregation (Ohms) 200 μM: 12 Ohms

Question: How did the “Relative Platelet Aggregation (Ohms) 25 μM” value turn out when `CCCCCCCCCCCCCCCCCCOCC(COP(=O)([O-])OCC[N+](C)(C)C)OC` [D-ET18OCH3, 1-O-octadecyl-2-O-methyl-glycerophosphocholine] was run?
Answer: The value was 0 Ohms.

Question: And the “Relative Platelet Aggregation (Ohms) 100 μM” value?
Answer: Its value is 0 Ohms.

Question: What about the “Relative Platelet Aggregation (Ohms) 200 μM” value of the same compound?
Answer: The value was 0 Ohms.

Source: US20060116354A1, “Antineoplastic ether lipid compounds with modifications at the sn-3 carbon” (priority 2003, published 2006)
